# Assay results taken from patent publication US10329278B2, “Pharmaceutical compounds” (Heptares Therapeutics Limited, priority 2017, dated 2019).
# “And” between values parts separate entries of the source, which are not always exact repeats. Equal entries are not always repeated. Where two headings read alike, the source gives them in different places.
# Columns and labels:
# [1] = biological target: T1, human muscarinic M1 receptor (Homo sapiens, UniProt P11229); assay: Alphascreen Surefire phospho-ERK1/2 functional assay, M1; format: cell-based; details: for EC50 / % Emax cf. ACh (M1) / pEC50 M1: CHO cells stably expressing human M1; for EC50 / pEC50 M1: agonist 5 min, 37° C.; for EC50: read-out: pEC50 M1 (converted); for Emax: CHO, read-out: % Emax cf. ACh (M1), CHO cells stably expressing human M1; for Emax / % Emax cf. ACh (M1): relative to ACh
# T1 sequence (P11229 1-460): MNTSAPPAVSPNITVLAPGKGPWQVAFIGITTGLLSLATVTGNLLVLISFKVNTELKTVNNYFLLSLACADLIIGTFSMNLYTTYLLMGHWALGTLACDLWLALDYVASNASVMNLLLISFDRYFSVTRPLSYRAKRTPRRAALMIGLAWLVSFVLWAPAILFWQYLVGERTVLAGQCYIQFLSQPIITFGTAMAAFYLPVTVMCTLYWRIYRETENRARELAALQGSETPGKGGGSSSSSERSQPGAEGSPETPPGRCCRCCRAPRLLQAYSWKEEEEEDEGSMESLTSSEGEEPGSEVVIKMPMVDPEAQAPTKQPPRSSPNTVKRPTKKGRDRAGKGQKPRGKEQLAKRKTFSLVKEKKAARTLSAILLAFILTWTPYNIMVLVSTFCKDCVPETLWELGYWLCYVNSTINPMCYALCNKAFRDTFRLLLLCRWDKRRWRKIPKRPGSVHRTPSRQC
# Protocol: (§1) ERK1/2 phosphorylation is a downstream consequence of both Gq/11 and Gi/o protein coupled receptor activation, making it highly suitable for the assessment of M1, M3 (Gq/11 coupled) and M2, M4 receptors (Gi/o coupled), rather than using different assay formats for different receptor subtypes. CHO cells stably expressing the human muscarinic M1, M2, M3 or M4 receptor were plated (25K/well) onto 96-well tissue culture plates in MEM-alpha+10% dialysed FBS. Once adhered, cells were serum-starved overnight. Agonist stimulation was performed by the addition of 5 μL agonist to the cells for 5 min (37° C.). Media was removed and 50 μL of lysis buffer added. After 15 min, a 4 μL sample was transferred to 384-well plate and 7 μL of detection mixture added.
# [2] = biological target: T2, human muscarinic M4 receptor (Homo sapiens, UniProt P08173); assay: Alphascreen Surefire phospho-ERK1/2 functional assay, M4; format: cell-based; details: for EC50 / % Emax cf. ACh (M4) / pEC50 M4: CHO cells stably expressing human M4; for EC50 / pEC50 M4: agonist 5 min, 37° C.; for EC50: read-out: pEC50 M4 (converted); for Emax: CHO
# T2 construct: expressed in transfected cells
# T2 sequence (P08173 1-479): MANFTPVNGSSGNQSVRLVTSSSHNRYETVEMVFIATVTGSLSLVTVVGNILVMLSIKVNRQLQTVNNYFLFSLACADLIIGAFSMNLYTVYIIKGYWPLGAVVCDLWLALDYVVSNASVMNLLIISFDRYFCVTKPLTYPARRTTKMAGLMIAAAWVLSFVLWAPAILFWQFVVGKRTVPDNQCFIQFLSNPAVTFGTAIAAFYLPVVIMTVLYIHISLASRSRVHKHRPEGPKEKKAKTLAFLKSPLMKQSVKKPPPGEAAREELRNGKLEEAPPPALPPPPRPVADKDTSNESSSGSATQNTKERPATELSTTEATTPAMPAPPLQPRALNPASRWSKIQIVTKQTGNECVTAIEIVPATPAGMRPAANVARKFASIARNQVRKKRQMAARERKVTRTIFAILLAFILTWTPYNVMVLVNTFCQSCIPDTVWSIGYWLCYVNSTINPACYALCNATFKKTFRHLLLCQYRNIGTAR
# Protocol: as §1
# [3] = read-out: % Emax cf. ACh (M4), CHO cells stably expressing human M4, relative to ACh
Structure (SMILES),EC50 [1] [nM],Emax [1] [%],EC50 [2] [nM],"Emax [2, 3] [%]",% Emax cf. ACh (M1) [1],% Emax cf. ACh (M4) ([2]; relative to ACh),pEC50 M1 [1],pEC50 M4 [2],Emax ([2]; read-out: % Emax cf. ACh (M4)) [%]
CCOC(=O)N1CCC2(CC(N3CC4C(C3)C4N(CC)CC(F)(F)F)C2)C1 (mixture of isomers) [2-27 Mixture of isomers],> 20000,20,1480,32,,,,,
"CCOC(=O)N1CCC2(CC(N3CC4C(C3)C4C(CC)=NOC)C2)C1 (single isomer, unassigned) [2-25 Isomer 2]",1290,,437,35,37%,,,,
"CCOC(=O)N1CCC2(CC(N3CC4C(C3)C4OC(C)c3ccccc3)C2)C1 (single isomer, unassigned) [2-28 Isomer 1]",575,,> 20000,,58%,21%,,,
"CCOC(=O)N1C2CCC1CC(N1CC3C(C1)C3C(=O)N(C)CC)C2 (single isomer, unassigned; isomer 1) [7-2 Isomer 1]",,,,,116%,14%,6.11,< 4.70,
"CCOC(=O)N1C2CCC1CC(N1CC3C(C1)C3C(=O)N(CC)CC)C2 (single isomer, unassigned; isomer 1) [7-3 Isomer 1]",,,,,123%,45%,6.78,5.58,
"CCOC(=O)N1C2CCCC1CC(N1CC3C(C1)C3C(=O)N(CC)CC)C2 (single isomer, unassigned; isomer 1) [9-2 Isomer 1]",,,,,102%,41%,6.56,5.87,
"CCN(CC)C(=O)C1C2CN(C3CC4CCCC(C3)N4C(=O)OC)CC21 (single isomer, unassigned; isomer 1) [9-3 Isomer 1]",,,,,106%,60%,6.40,6.12,
"CCOC(=O)N1C2COCC1CC(N1CC3C(C1)C3C(=O)N(C)CC)C2 (single isomer, unassigned; isomer 1) [10-1 Isomer 1]",,,,,110% and 78%,24% and 15%,5.94 and 5.76,< 4.70,
"COC(=O)N1C2COCC1CC(N1CC3C(C1)C3C(=O)N(C)C(C)C)C2 (single isomer, unassigned; isomer 1) [10-5 Isomer 1]",,,,,99%,81%,6.30,5.91,
"CCN(C(=O)C1C2CN(C3CC4COCC(C3)N4C(=O)OC)CC21)C(C)C (single isomer, unassigned; isomer 1) [10-7 Isomer 1]",,,,,99%,69%,7.42,6.79,
"CCOC(=O)N1C2COCC1CC(N1CC3C(C1)C3C(=O)N(C)C1CC1)C2 (single isomer, unassigned; isomer 1) [10-8 Isomer 1]",,,,,116%,47%,5.99,4.84,
"CCOC(=O)C1C2CN(C3CC4CCC(C3)N4C(=O)OCC)CC21 (single isomer, unassigned; isomer 2) [7-1 Isomer 2]",,,,,83%,62%,5.67,5.80,
"CCOC(=O)N1C2CCC1CC(N1CC3C(C1)C3C(=O)N(C)CC)C2 (single isomer, unassigned; isomer 2) [7-2 Isomer 2]",,,,,113%,53%,6.66,4.96,
"CCOC(=O)N1C2CCC1CC(N1CC3C(CN(CC)C(C)=O)C3C1)C2 (single isomer, unassigned; isomer 2) [7-5 Isomer 2]",,,,,23%,38%,< 4.70,6.13,
"CCOC(=O)N1C2CCC1CC(N1CC3C(C1)C3c1csc(C)n1)C2 (single isomer, unassigned; isomer 2) [7-6 Isomer 2]",,,,,56%,73%,5.94,6.21,
"CCOC(=O)N1C2CCCC1CC(N1CC3C(C1)C3C(=O)N(C)CC)C2 (single isomer, unassigned; isomer 2) [9-1 Isomer 2]",,,,,93%,24%,6.01,< 4.70,
"CCN(CC)C(=O)C1C2CN(C3CC4COCC(C3)N4C(=O)OC)CC21 (single isomer, unassigned; isomer 2) [10-3 Isomer 2]",,,,,81%,25%,5.75,< 4.70,
"COC(=O)N1C2COCC1CC(N1CC3C(C1)C3C(=O)N(C)C(C)C)C2 (single isomer, unassigned; isomer 2) [10-5 Isomer 2]",,,,,101%,90%,5.66,4.90,
"CCN(C(=O)C1C2CN(C3CC4COCC(C3)N4C(=O)OC)CC21)C(C)C (single isomer, unassigned; isomer 2) [10-7 Isomer 2]",,,,,100%,64%,6.83,6.23,
"CCOC(=O)N1C2COCC1CC(N1CC3C(C1)C3C(=O)N(C)C1CC1)C2 (single isomer, unassigned; isomer 2) [10-8 Isomer 2]",,,,,85%,32%,5.65,5.67,
"CCOC(=O)N1C2COCC1CC(N1CC3C(C1)C3C(=O)N(CC)C1CC1)C2 (single isomer, unassigned; isomer 2) [10-9 Isomer 2]",,,,,105%,38%,6.57,5.47,
"COC(=O)N1C2COCC1CC(N1CC3C(C1)C3C(=O)N1CCCCC1)C2 (single isomer, unassigned; isomer 2) [10-12 Isomer 2]",,,,,99%,86%,5.99,4.85,
"CC(=O)OCC[N+](C)(C)C [ACh, acetylcholine, reference compound]",,,,,,,,,109
"CCOC(=O)N1CC2(CC(N3C[C@@H]4[C@H](C3)[C@H]4C(=O)N(CC)CC)C2)C1 [Example 1-2, ethyl 6-[(1R,5S,6r)-6-(diethylcarbamoyl)-3-azabicyclo[3.1.0]hex-3-yl]-2-azaspiro[3.3]heptane-2-carboxylate]",132,110,955,81,,,,,
